What was measured:
subjects with TRD [1] = assay: Clinician-Administered Dissociative States Scale (CADSS)
Experimental: (§1) The Investigational Medicinal Product (IMP) R(−)-ketamine hydrochloride in sterile water for intravenous injection was investigated as an […] treatment of TRD. The International Union of Pure and Applied Chemistry (IUPAC) name is of the IMP is (2R)-2-(2-chlorophenyl)-2-(methylamino)cyclohexan-1-one. Subjects received the solution at either 30 mg or 60 mg dose, or a placebo. The IMP or placebo was administered on Day 1 as a single IV infusion via an electronic infusion pump over 40 minutes. The duration of study participation for each subject was up to 29 days including a screening period, a 3-day in-clinic visit, and 2 follow-up visits. 101 subjects were enrolled in approximately 20 study centers in the EU and the US.
The CADSS was to assess the alertness or dissociative state of subjects administered R(−)-ketamine. The study staff evaluated the subject's degree of dissociation by administering the CADSS questionnaire pre-dose; at 40 minutes post-dose (at EoI); and at 2 and 4 hours post-dose.

[2] = test system: mouse model of morphine addiction; assay: Mouse model of morphine addiction; format: in vivo; settings: co-administered to mice
rats = assay: Alcohol tolerance; format: in vivo
[3] = test system: phencyclidine site of the N-methyl-D-aspartate (NMDA) receptor; settings: compared with racemic ketamine or S(+)-ketamine; cited from earlier work
subjects with TRD [4] = assay: Modified Observer's Assessment of Alertness/Sedation (MOAA/S)
Experimental: as §1
The MOAA/S will were to determine if R(−)-ketamine causes the side effect of sedation and to what degree. Sedation was evaluated by the study staff using the MOAA/S. The observer recorded the subject's alertness pre-dose, every 20 minutes for first 2 hours post-dose, and at 4 and 6 hours after the start of the infusion.

CN[C@@]1(c2ccccc2Cl)CCCCC1=O.Cl [R(−)-ketamine, (2R)-2-(2-chlorophenyl)-2-(methylamino)cyclohexan-1-one]
Subjects with post-baseline CADSS >4 and change from baseline >0, number (subjects with TRD [1]; 30 mg (n = 33)): 12 n | Subjects with post-baseline CADSS >4 and change from baseline >0, percent (subjects with TRD [1]; 30 mg (n = 33)): (36.4) % | Subjects with post-baseline CADSS >4 and change from baseline >0, number (subjects with TRD [1]; 60 mg (n = 35)): 8 n | Subjects with post-baseline CADSS >4 and change from baseline >0, percent (subjects with TRD [1]; 60 mg (n = 35)): (22.9) % | Effect on the addictive properties of morphine [2]: significantly attenuated the addictive properties of morphine | Effect on alcohol tolerance (rats): mitigated the effects of alcohol tolerance | Lower affinity to the NMDA receptor [3]: 4 fold | Subjects with post-baseline MOASS <5, number (subjects with TRD [4]; 30 mg (n = 33)): 9 n | Subjects with post-baseline MOASS <5, percent (subjects with TRD [4]; 30 mg (n = 33)): (27.3) % | Subjects with post-baseline MOASS <5, number (subjects with TRD [4]; 60 mg (n = 35)): 12 n | Subjects with post-baseline MOASS <5, percent (subjects with TRD [4]; 60 mg (n = 35)): (34.3) %

From patent US20260027068A1, “METHODS OF ADM[…]-KETAMINE” (Perception Neuroscience, Inc., priority 2022, published 2026)
